Experimental data reported in patent US11421280B2 (DENOVO BIOPHARMA LLC, priority 2016, dated 2022).
Entries after “also recorded” stand apart in the source; their conditions may differ.

Columns and labels:
DLBCL patients [1] = experiment: Prelude phase 3 DLBCL maintenance trial, survival analysis by chromaturia and rs309605 genotype; assay type: in vivo, human
Source text: Prelude trial is a multicenter, phase 3, randomized, double-blind, placebo-controlled trial enrolled patients at high risk of recurrence following rituximab-cyclophosphamide, doxorubicin, vincristine, and prednisone (R-CHOP). […] Primary endpoint was DFS 3 years after the last patient entered treatment (FIG. 1A).
Unlike most oncology biomarker studies focusing on mutations or target protein overexpression in tumor cells, germline genetic polymorphisms also contribute to the various responses to the same drug in different patients.
For both rs309605 and rs309604, allele A represents T and allele B represents C. […] A p-value smaller than 5×10^−8 is usually considered the threshold for genome-wide significance.
To examine whether rs309605 is merely a prognostic biomarker, DNA samples from 238 patients from placebo control group were genotyped at rs309605 using the Taqman SNP assays.

[2] = test system: cultured cancer cells (colon, NSCLC, glioblastoma, diffuse large B-cell and cutaneous T-cell lymphoma, multiple myeloma, Waldenstrom's macroglobulinemia); conditions: cited from earlier work
[3] = test system: other PKC isoforms (α, γ, ε); conditions: Graff et al. 2005; read-out: IC50s other PKC isoforms (α, γ, ε); cited from earlier work
GBM patients = experiment: S008 GBM phase 1/2 first line trial; assay type: in vivo, human
Source text: FIG. 4A is a Kaplan-Meier plot showing time to overall survival in the AA+AB group and BB group. FIG. 4B is a Kaplan-Meier plot showing time to overall survival in the chromaturia group and non-chromaturia group.
The DNA samples from blood of GBM patients in S008 trials were used to genotype rs309605 by Taqman assay.

[4] = test system: human cancer xenografts (colorectal carcinomas, glioblastomas, diffuse large B-Cell lymphomas, Waldenstrom's macroglobulinemia, multiple myeloma); conditions: single-agent treatment; cited from earlier work
DLBCL patients [5] = experiment: S028 phase 2 DLBCL 1st line trial, enzastaurin in combination with R-CHOP; assay type: in vivo, human
Method: Thus, subgroup analysis was conducted using both IPI and rs309605 and rs309604.

[6] = test system: VEGF induced angiogenesis; conditions: oral dosing, plasma exposure similar to human clinical trials; cited from earlier work
[7] = enzastaurin arm, rs309605/rs309604
[8] = enzastaurin arm, rs309605/rs309604, p-value 5.75×10^−9

Q: With `Cn1cc(C2=C(c3cn(C4CCN(Cc5ccccn5)CC4)c4ccccc34)C(=O)NC2=O)c2ccccc21` [enzastaurin, 3-(1-methyl-1H-indol-3-yl)-4-[1-[1-(pyridin-2-ylmethyl)piperidin-4-yl]-1H-indol-3-yl]-1H-pyrrole-2,5-dione] as the compound, how does the “overall survival, AA+AB vs BB genotype in patients without chromaturia” value (DLBCL patients [1]; 177 enzastaurin treated patients without chromaturia) read?
A: no significant difference in overall survival

Q: And the “Event per 1000 person-month” value (DLBCL patients [1]; AA + AB (rs309605), Chrom)?
A: 0.65 per 1000 person-month

Q: What about the “Number of events (OS)” value (DLBCL patients [1]; AA + AB (rs309605), Chrom, N 82) of the same compound?
A: 3

Q: And the “Event per 1000 person-month” value (DLBCL patients [1]; AA + AB (rs309605), Non-Chrom)?
A: 3.69 per 1000 person-month

Q: And the “Number of events (OS)” value (DLBCL patients [1]; AA + AB (rs309605), Non-Chrom, N 158)?
A: 27

Q: What about the “Event per 1000 person-month” value (DLBCL patients [1]; All types (AA, AB, BB), Chrom) of the same compound?
A: 1.96 per 1000 person-month

Q: What about the “Number of events (OS)” value (DLBCL patients [1]; All types (AA, AB, BB), Chrom, N 95) of the same compound?
A: 10

Q: And the “Event per 1000 person-month” value (DLBCL patients [1]; All types (AA, AB, BB), Non-Chrom)?
A: 4.83 per 1000 person-month

Q: And the “Number of events (OS)” value (DLBCL patients [1]; All types (AA, AB, BB), Non-Chrom, N 187)?
A: 41

Q: What about the “number of patients who survived, AA+AB genotype” value (DLBCL patients [1]; [7]) of the same compound?
A: 209

Q: What about the “number of patients who survived, BB genotype” value (DLBCL patients [1]; [7]) of the same compound?
A: 22

Q: And the “number of patients who had events, AA+AB genotype” value (DLBCL patients [1]; [8])?
A: 31

Q: What about the “number of patients who had events, BB genotype” value (DLBCL patients [1]; [8]) of the same compound?
A: 22

Q: What about the “overall survival, AA+AB genotype vs BB genotype” value (DLBCL patients [1]; enzastaurin treated arm, rs309605 and rs309604) of the same compound?
A: significantly improved survival; also recorded: significant longer overall survival

Q: What about the “overall survival, AA+AB genotype at rs309605 with chromaturia” value (DLBCL patients [1]; interaction of genotype and chromaturia, p value=0.017) of the same compound?
A: best overall survival

Q: What about the “overall survival / efficacy, enzastaurin arm vs placebo arm” value (DLBCL patients [1]; overall patient population, N=504 vs N=254, 500 mg daily oral) of the same compound?
A: failed to demonstrate statistically significant efficacy; also recorded: no significant difference

Q: And the “intracellular signaling through the PKC and PI3K/AKT pathways” value ([2]; clinically relevant concentrations, suppresses phosphorylation of AKT, mTOR, p70S6K, S6, 4EBP1, CREB, GSK3β)?
A: blocks intracellular signaling through the PKC and PI3K/AKT pathways

Q: What about the tumor cell apoptosis ([2]; cultured cancer cells) of the same compound?
A: induces tumor cell apoptosis

Q: And the tumor cell proliferation ([2]; cultured cancer cells)?
A: inhibits tumor cell proliferation

Q: And the IC50 [3]?
A: 40 to 100 nM

Q: What about the “overall survival, AA or AB genotype vs BB genotype at rs309605” value (GBM patients) of the same compound?
A: better overall survival

Q: And the “survival, chromaturia vs without chromaturia” value (GBM patients)?
A: significant improved survival

Q: What about the “growth of human cancer xenografts” value [4] of the same compound?
A: suppresses growth of multiple human cancer xenografts

Q: And the “survival, AA+AB vs BB genotype at rs309605” value (DLBCL patients [5]; enzastaurin treatment arm, with R-CHOP)?
A: significant better survival

Q: And the “overall survival, enzastaurin arm vs control arm” value (DLBCL patients [5]; general patient population, with R-CHOP)?
A: no significant difference

Q: And the “Progression Free (PFS) survival and overall survival, enzastaurin arm” value (DLBCL patients [5]; patients AA+AB at rs309605 and rs309604 and IPI>2)?
A: superior efficacy

Q: What about the VEGF induced angiogenesis [6] of the same compound?
A: suppresses VEGF induced angiogenesis
